What was measured:
Type in all cases: functional
NCI-H522 [1] = experiment: Growth inhibition of human NCI-H522 cells assessed as cell growth at 0.01 uM after 48 hrs by SRB assay relative to control; settings: NCI-H522, 48 h, read-out: Activity
U-251 = experiment: Growth inhibition of human U251 cells assessed as cell growth at 0.01 uM after 48 hrs by SRB assay relative to control; settings: U-251, 48 h, read-out: Activity
LOX IMVI [2] = experiment: Growth inhibition of human LOXIMVI cells assessed as cell growth at 0.01 uM after 48 hrs by SRB assay relative to control; settings: read-out: Activity
Malme-3M [3] = experiment: Growth inhibition of human MALME-3M cells assessed as cell growth at 0.01 uM after 48 hrs by SRB assay relative to control; settings: read-out: Activity
MDA-MB-435 = experiment: Growth inhibition of human MDA-MB-435 cells assessed as cell growth at 0.01 uM after 48 hrs by SRB assay relative to control; settings: MDA-MB-435, 48 h, read-out: Activity
OVCAR-3 = experiment: Growth inhibition of human OVCAR3 cells assessed as cell growth at 0.01 uM after 48 hrs by SRB assay relative to control; settings: OVCAR-3, 48 h, read-out: Activity
OVCAR-8 [4] = experiment: Growth inhibition of human OVCAR8 cells assessed as cell growth at 0.01 uM after 48 hrs by SRB assay relative to control; settings: OVCAR-8, 48 h, read-out: Activity
SR = experiment: Growth inhibition of human SR cells assessed as cell growth at 0.1 uM after 48 hrs by SRB assay relative to control; settings: read-out: Activity
NCI-H522 [5] = experiment: Growth inhibition of human NCI-H522 cells assessed as cell growth at 0.1 uM after 48 hrs by SRB assay relative to control; settings: NCI-H522, 48 h, read-out: Activity
SW-620 [6] = experiment: Growth inhibition of human SW620 cells assessed as cell growth at 0.1 uM after 48 hrs by SRB assay relative to control; settings: SW-620, 48 h, read-out: Activity
LOX IMVI [7] = experiment: Growth inhibition of human LOXIMVI cells assessed as cell growth at 0.1 uM after 48 hrs by SRB assay relative to control; settings: read-out: Activity
Malme-3M [8] = experiment: Growth inhibition of human MALME-3M cells assessed as cell growth at 0.1 uM after 48 hrs by SRB assay relative to control; settings: read-out: Activity
UACC-257 = experiment: Growth inhibition of human UACC257 cells assessed as cell growth at 0.1 uM after 48 hrs by SRB assay relative to control; settings: UACC-257, 48 h, read-out: Activity
OVCAR-4 = experiment: Growth inhibition of human OVCAR4 cells assessed as cell growth at 0.1 uM after 48 hrs by SRB assay relative to control; settings: OVCAR-4, 48 h, read-out: Activity
ACHN = experiment: Growth inhibition of human ACHN cells assessed as cell growth at 0.1 uM after 48 hrs by SRB assay relative to control; settings: read-out: Activity
DU-145 [9] = experiment: Growth inhibition of human DU145 cells assessed as cell growth at 0.1 uM after 48 hrs by SRB assay relative to control; settings: DU-145, 48 h, read-out: Activity
DU-145 [10] = experiment: Growth inhibition of human DU145 cells assessed as cell growth at 1 uM after 48 hrs by SRB assay relative to control; settings: DU-145, 48 h, read-out: Activity
MOLT-4 = experiment: Growth inhibition of human MOLT4 cells assessed as cell growth at 10 uM after 48 hrs by SRB assay relative to control; settings: MOLT-4, 48 h, read-out: Activity
SK-MEL-28 = experiment: Growth inhibition of human SK-MEL-28 cells assessed as cell growth at 10 uM after 48 hrs by SRB assay relative to control; settings: SK-MEL-28, 48 h, read-out: Activity
SK-MEL-5 = experiment: Growth inhibition of human SK-MEL-5 cells assessed as cell growth at 10 uM after 48 hrs by SRB assay relative to control; settings: SK-MEL-5, 48 h, read-out: Activity
OVCAR-8 [11] = experiment: Growth inhibition of human OVCAR8 cells assessed as cell growth at 10 uM after 48 hrs by SRB assay relative to control; settings: OVCAR-8, 48 h, read-out: Activity
CCRF-CEM = experiment: Growth inhibition of human CCRF-CEM cells assessed as cell growth at 100 uM after 48 hrs by SRB assay relative to control; settings: read-out: Activity
A549 = experiment: Growth inhibition of human A549/ATCC cells assessed as cell growth at 100 uM after 48 hrs by SRB assay relative to control; settings: A549, 48 h, read-out: Activity
NCI-H460 = experiment: Growth inhibition of human NCI-H460 cells assessed as cell growth at 100 uM after 48 hrs by SRB assay relative to control; settings: NCI-H460, 48 h, read-out: Activity
SNB-19 = experiment: Growth inhibition of human SNB19 cells assessed as cell growth at 100 uM after 48 hrs by SRB assay relative to control; settings: SNB-19, 48 h, read-out: Activity
SN12C = experiment: Growth inhibition of human SN12C cells assessed as cell growth at 100 uM after 48 hrs by SRB assay relative to control; settings: read-out: Activity
UO-31 = experiment: Growth inhibition of human UO31 cells assessed as cell growth at 100 uM after 48 hrs by SRB assay relative to control; settings: UO-31, 48 h, read-out: Activity
HCC 2998 = experiment: Cytotoxicity against human HCC2998 cells assessed as growth inhibition after 48 hrs by SRB assay; settings: HCC 2998, 48 h
HCT-15 = experiment: Cytotoxicity against human HCT15 cells assessed as growth inhibition after 48 hrs by SRB assay; settings: HCT-15, 48 h
HT-29 = experiment: Cytotoxicity against human HT-29 cells assessed as growth inhibition after 48 hrs by SRB assay; settings: HT-29, 48 h
SW-620 [12] = experiment: Cytotoxicity against human SW620 cells assessed as growth inhibition after 48 hrs by SRB assay; settings: SW-620, 48 h
Hs-578T = experiment: Cytotoxicity against human Hs 578T cells assessed as growth inhibition after 48 hrs by SRB assay
[13] = read-out: LC50 (the source's name)
[14] = read-out: pLC50 (the source's name) (converted)

COc1ccc2c(c1)CCc1n[nH]c(-c3cc(OC)c(OC)c(OC)c3)c1-2
growth at 0.01 µM (NCI-H522 [1]): -16% | growth at 0.01 µM (U-251): 14% | growth at 0.01 µM (LOX IMVI [2]): 21% | growth at 0.01 µM (Malme-3M [3]): 46% | growth at 0.01 µM (MDA-MB-435): -45% | growth at 0.01 µM (OVCAR-3): 14% | growth at 0.01 µM (OVCAR-8 [4]): 15% | growth at 0.1 µM (SR): 18% | growth at 0.1 µM (NCI-H522 [5]): -18% | growth at 0.1 µM (SW-620 [6]): 18% | growth at 0.1 µM (LOX IMVI [7]): 16% | growth at 0.1 µM (Malme-3M [8]): 48% | growth at 0.1 µM (UACC-257): 51% | growth at 0.1 µM (OVCAR-4): 44% | growth at 0.1 µM (ACHN): 27% | growth at 0.1 µM (DU-145 [9]): 10% | growth at 1 µM (DU-145 [10]): 12% | growth at 10 µM (MOLT-4): 31% | growth at 10 µM (SK-MEL-28): 34% | growth at 10 µM (SK-MEL-5): -21% | growth at 10 µM (OVCAR-8 [11]): 9% | growth at 100 µM (CCRF-CEM): 25% | growth at 100 µM (A549): -26% | growth at 100 µM (NCI-H460): -59% | growth at 100 µM (SNB-19): -12% | growth at 100 µM (SN12C): -47% | growth at 100 µM (UO-31): -43% | GI50 (HCC 2998; read-out: GI50): < 0.01 µM | CC50 (HCC 2998; [13]): 44.3 µM | TGI (HCC 2998; read-out: TGI): 11.4 µM | GI50 (HCC 2998; read-out: pGI50 (converted)): < 0.01 µM | CC50 (HCC 2998; [14]): 44.7 µM | TGI (HCC 2998; read-out: pTGI (converted)): 11.5 µM | GI50 (HCT-15; read-out: GI50): < 0.01 µM | CC50 (HCT-15; [13]): > 100 µM | TGI (HCT-15; read-out: TGI): 11.8 µM | GI50 (HCT-15; read-out: pGI50 (converted)): < 0.01 µM | CC50 (HCT-15; [14]): > 100 µM | TGI (HCT-15; read-out: pTGI (converted)): 11.7 µM | GI50 (HT-29; read-out: GI50): < 0.01 µM | CC50 (HT-29; [13]): 49.9 µM | TGI (HT-29; read-out: TGI): 10.1 µM | GI50 (HT-29; read-out: pGI50 (converted)): < 0.01 µM | CC50 (HT-29; [14]): 50.1 µM | TGI (HT-29; read-out: pTGI (converted)): 10 µM | GI50 (SW-620 [12]; read-out: GI50): < 0.01 µM | CC50 (SW-620 [12]; [13]): 52.2 µM | TGI (SW-620 [12]; read-out: TGI): 14.5 µM | GI50 (SW-620 [12]; read-out: pGI50 (converted)): < 0.01 µM | CC50 (SW-620 [12]; [14]): 52.5 µM | TGI (SW-620 [12]; read-out: pTGI (converted)): 14.5 µM | GI50 (Hs-578T; read-out: GI50): < 0.01 µM | LC50 (Hs-578T; read-out: LC50): > 100 µM | TGI (Hs-578T; read-out: TGI): 22.3 µM | GI50 (Hs-578T; read-out: pGI50 (converted)): < 0.01 µM | LC50 (Hs-578T; read-out: pLC50 (converted)): > 100 µM | TGI (Hs-578T; read-out: pTGI (converted)): 22.4 µM
